Where only a bound is given, the exact number is not on record here.

The text below walks through data of US20110044938A1 (NYCOMED GMBH, priority 2006, published 2011).

Experiment [1] has as its system RKO (RKOp27) human colon adenocarcinoma cells. Put plainly: Alamar Blue cell viability assay, anti-proliferative/cytotoxic activity on proliferating RKO subclones. In kind it is cell-based. To be noted: RKOp27, 72 h, RKO p27 uninduced (proliferating) cells, value = class bound given in Table A, read-out: −logIC50 RKO p27 uninduced (proliferating) (converted). The procedure, abridged: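 RKOp27 subclones (5000 cells/well) were exposed 24 h after seeding to semi-log compound dilutions in DMEM with 10% FCS, in quadruplicate, for 72 h at 37 °C. Viability was read by Alamar Blue fluorescence (544/590 nm) relative to untreated cells (1% DMSO medium). IC50 came from concentration-effect curves and is reported as −log IC50 [mol/l].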
On the technique in general: The colour change of resazurin is a common sign of viable cells or microbes.

Experiment [2] has as its system subclones of RKO colon adenocarcinoma cells (RKOp27 or RKOp21) arrested by Ponasterone A. In words: Alamar Blue cell viability assay, cell cycle specific mode of action: cells arrested by ectopic p27Kip1 induced by Ponasterone A versus proliferating cells. In kind it is cell-based. To be noted: Homo sapiens, RKO p27 induced (arrested) cells, 10 μM Ponasterone A, 72 hours, value = class bound given in Table A, read-out: −logIC50 RKO p27 induced (arrested) (converted). The procedure, abridged: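 RKOp27 or RKOp21 cells, 15000/well in DMEM/10% FCS, either arrested by p27Kip1 induced with 10 μM Ponasterone A or proliferating without inducer; compound added after 24 h, 72 h at 37° C. Alamar Blue fluorescence (544/590 nm), viability as % of untreated cells; −log IC50 reported.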

For `Cc1nocc1CNC(=O)OC1CCc2c(sc(NC(=O)CC(C)c3cccnc3)c2C#N)C1` (stereo not drawn) [Example 355, (3-Methyl-isoxazol-4-ylmethyl)-carbamic acid 3-cyano-2-(3-pyridin-3-yl-butanoylamino)-4,5,6,7-tetrahydro-benzo[b] thiophen-6-yl ester], the results for the IC50 in experiment [1] and in experiment [2] were 0.501 to 2 µM and at least 100 µM, respectively.

In the case of `CC(CC(=O)Nc1sc2c(c1C#N)CCC(OC(=O)OCc1cncs1)C2)c1cccnc1` (stereo not drawn) [Example 356, Carbonic acid 3-cyano-2-(3-pyridin-3-yl-butanoylamino)-4,5,6,7-tetrahydro-benzo[b] thiophen-6-yl ester thiazol-5-ylmethyl ester], the values for the IC50 in experiment [1] and in experiment [2] were 0.501 to 2 µM and at least 100 µM, respectively.

With `CC(CC(=O)Nc1sc2c(c1C#N)CCC(COC(=O)N1CCCC1)C2)c1cccnc1` (stereo not drawn) [Example 357, Pyrrolidine-1-carboxylic acid 3-cyano-2-(3-pyridin-3-yl-butanoylamino)-4,5,6,7-tetrahydro-benzo[b]thiophen-6-ylmethyl ester], the IC50 in experiment [1] was at most 0.501 µM; in experiment [2], at least 100 µM.

Consider `Cc1oncc1CNC(=O)OC1CCc2c(sc(NC(=O)CC(C)c3ccccc3)c2C#N)C1` (stereo not drawn) [Example 358, (5-Methyl-isoxazol-4-ylmethyl)-carbamic acid 3-cyano-2-(3-phenyl-butanoylamino)-4,5,6,7-tetrahydro-benzo[b]thiophen-6-yl ester], for which the IC50 in experiment [1] was at most 0.501 µM; in experiment [2], at least 100 µM.

Turning to `Cc1nocc1CNC(=O)OC1CCc2c(sc(NC(=O)CC(C)c3ccccc3)c2C#N)C1` (stereo not drawn) [Example 359, (3-Methyl-isoxazol-4-ylmethyl)-carbamic acid 3-cyano-2-(3-phenyl-butanoylamino)-4,5,6,7-tetrahydro-benzo[b] thiophen-6-yl ester], the results for the IC50 in experiment [1] and in experiment [2] were at most 0.501 µM and at least 100 µM, respectively.

As for `CC(CC(=O)Nc1sc2c(c1C#N)CCC(OC(=O)N1CCCC1)C2)c1ccccc1` (stereo not drawn) [Example 360, Pyrrolidine-1-carboxylic acid 3-cyano-2-(3-phenyl-butanoylamino)-4,5,6,7-tetrahydro-benzo[b] thiophen-6-yl ester], the IC50 is at most 0.501 µM in experiment [1] and at least 100 µM in experiment [2].

In the case of `COc1cccc(C(C)CC(=O)Nc2sc3c(c2C#N)CCC(OC(=O)NCc2conc2C)C3)c1` (stereo not drawn) [Example 361, (3-Methyl-isoxazol-4-ylmethyl)-carbamic acid 3-cyano-2-[3-(3-methoxy-phenyl)-butanoyl-amino]-4,5,6,7-tetrahydro-benzo[b] thiophen-6-yl ester], the IC50 in experiment [1] is at most 0.501 µM; in experiment [2] it was at least 100 µM.

With `COc1cccc(C(C)CC(=O)Nc2sc3c(c2C#N)CCC(OC(=O)NCc2cc(C)no2)C3)c1` (stereo not drawn) [Example 362, (3-Methyl-isoxazol-5-ylmethyl)-carbamic acid 3-cyano-2-[3-(3-methoxy-phenyl)-butanoyl-amino]-4,5,6,7-tetrahydro-benzo[b]thiophen-6-yl ester], the results for the IC50 in experiment [1] and in experiment [2] were 0.501 to 2 µM and at least 100 µM, respectively.

For `COc1cccc(C(C)CC(=O)Nc2sc3c(c2C#N)CCC(COC(=O)NCc2csc(C)n2)C3)c1` (stereo not drawn) [Example 363, (2-Methyl-thiazol-4-ylmethyl)-carbamic acid 3-cyano-2-[3-(3-methoxy-phenyl)-butanoyl-amino]-4,5,6,7-tetrahydro-benzo[b]thiophen-6-ylmethyl ester], the IC50 in experiment [1] was 0.501 to 2 µM; in experiment [2] it was at least 100 µM.

In the case of `COc1cccc(C(C)CC(=O)Nc2sc3c(c2C#N)CCC(COC(=O)NCc2cc(C)no2)C3)c1` (stereo not drawn) [Example 364, (3-Methyl-isoxazol-5-ylmethyl)-carbamic acid 3-cyano-2-[3-(3-methoxy-phenyl)-butanoyl-amino]-4,5,6,7-tetrahydro-benzo[b]thiophen-6-ylmethyl ester], the IC50 in experiment [1] is at most 0.501 µM; in experiment [2], at least 100 µM.

Consider `COc1cccc(C(C)CC(=O)Nc2sc3c(c2C#N)CCC(COC(=O)NCc2conc2C)C3)c1` (stereo not drawn) [Example 365], for which the IC50 in experiment [1] is 0.501 to 2 µM; in experiment [2] it was at least 100 µM.

`CC(CC(=O)Nc1sc2c(c1C#N)CCC(OC(=O)N1CCOCC1)C2)c1ccccc1` (stereo not drawn) [Example 366, Morpholine-4-carboxylic acid 3-cyano-2-(3-phenyl-butanoyl-amino)-4,5,6,7-tetrahydro-benzo[b] thiophen-6-yl ester]: the IC50 in experiment [1] was at most 0.501 µM; in experiment [2], at least 50.1 µM.

In the case of `CC(CC(=O)Nc1sc2c(c1C#N)CCC(COC(=O)N1CCOCC1)C2)c1cccnc1` (stereo not drawn) [Example 367, Morpholine-4-carboxylic acid 3-cyano-2-(3-pyridin-3-yl-butanoylamino)-4,5,6,7-tetrahydro-benzo[b]thiophen-6-ylmethyl ester], the IC50 is 0.501 to 2 µM in experiment [1] and at least 50.1 µM in experiment [2].

`CC(CC(=O)Nc1sc2c(c1C#N)CCC(OC(=O)OCc1nccs1)C2)c1ccccc1` (stereo not drawn) [Example 368, Carbonic acid 3-cyano-2-(3-phenyl-butanoylamino)-4,5,6,7-tetrahydro-benzo[b]thiophen-6-yl ester thiazol-2-ylmethyl ester]: the IC50 in experiment [1] is 0.501 to 2 µM; in experiment [2], at least 50.1 µM.

Take `CC(CC(=O)Nc1sc2c(c1C#N)CCC(OC(=O)N1CCCC1)C2)c1cccnc1` (stereo not drawn) [Example 369, Pyrrolidine-1-carboxylic acid 3-cyano-2-(3-pyridin-3-yl-butanoylamino)-4,5,6,7-tetrahydro-benzo[b]thiophen-6-yl ester]: the IC50 in experiment [1] is 0.501 to 2 µM; in experiment [2], at least 50.1 µM.

Take `Cc1cc(CNC(=O)OCC2CCc3c(sc(NC(=O)CC(C)c4cccnc4)c3C#N)C2)on1` (stereo not drawn) [Example 370, (3-Methyl-isoxazol-5-ylmethyl)-carbamic acid 3-cyano-2-(3-pyridin-3-yl-butanoylamino)-4,5,6,7-tetrahydro-benzo[b] thiophen-6-ylmethyl ester]: the values for the IC50 in experiment [1] and in experiment [2] were 0.501 to 2 µM and at least 50.1 µM, respectively.

Turning to `CC(CC(=O)Nc1sc2c(c1C#N)CCC(COC(=O)N1CCCC1)C2)c1ccccn1` (stereo not drawn) [Example 371, Pyrrolidine-1-carboxylic acid 3-cyano-2-(3-pyridin-2-yl-butanoylamino)-4,5,6,7-tetrahydro-benzo[b]thiophen-6-ylmethyl ester], the figures for the IC50 in experiment [1] and in experiment [2] were 0.501 to 2 µM and at least 50.1 µM, respectively.

On to `CC(CC(=O)Nc1sc2c(c1C#N)CCC(OC(=O)NCc1ccno1)C2)c1ccccc1` (stereo not drawn) [Example 372, (Isoxazol-5-ylmethyl)-carbamic acid 3-cyano-2-(3-phenyl-butanoylamino)-4,5,6,7-tetrahydro-benzo[b]thiophen-6-yl ester], for which the figures for the IC50 in experiment [1] and in experiment [2] were at most 0.501 µM and at least 50.1 µM, respectively.

On to `Cc1cc(CNC(=O)OC2CCc3c(sc(NC(=O)CC(C)c4ccccc4)c3C#N)C2)on1` (stereo not drawn) [Example 373, (3-Methyl-isoxazol-5-ylmethyl)-carbamic acid 3-cyano-2-(3-phenyl-butanoylamino)-4,5,6,7-tetrahydro-benzo[b]thiophen-6-yl ester], for which the IC50 in experiment [1] was at most 0.501 µM; in experiment [2] it was at least 50.1 µM.

As to `COc1cccc(C(C)CC(=O)Nc2sc3c(c2C#N)CCC(OC(=O)N2CCOCC2)C3)c1` (stereo not drawn) [Example 374, Morpholine-4-carboxylic acid 3-cyano-2-(3-(3-methoxy-phenyl)-butanoylamino)-4,5,6,7-tetrahydro-benzo[b] thiophen-6-yl ester], the figures for the IC50 in experiment [1] and in experiment [2] were at most 0.501 µM and at least 50.1 µM, respectively.

Take `CC(CC(=O)Nc1sc2c(c1C#N)CCC(OC(=O)OCc1cncs1)C2)c1ccccc1` (stereo not drawn) [Example 375, Carbonic acid 3-cyano-2-(3-phenyl-butanoyl-amino)-4,5,6,7-tetrahydro-benzo[b] thiophen-6-yl ester thiazol-5-ylmethyl ester]: the IC50 was at most 0.501 µM in experiment [1] and at least 10 µM in experiment [2].

For the compound `COc1cccc(C(C)CC(=O)Nc2sc3c(c2C#N)CCC(OC(=O)N2CCCC2)C3)c1` (stereo not drawn) [Example 376, Pyrrolidine-1-carboxylic acid 3-cyano-2-(3-(3-methoxy-phenyl)-butanoylamino)-4,5,6,7-tetrahydro-benzo[b] thiophen-6-yl ester], the IC50 was at most 0.501 µM in experiment [1] and at least 10 µM in experiment [2].

`Cc1nc(CNC(=O)OCC2CCc3c(sc(NC(=O)CC(C)c4cccnc4)c3C#N)C2)cs1` (stereo not drawn) [Example 377, (2-Methyl-thiazol-4-ylmethyl)-carbamic acid 3-cyano-2-(3-pyridin-3-yl-butanoylamino)-4,5,6,7-tetrahydro-benzo[b]thiophen-6-ylmethyl ester]: the results for the IC50 in experiment [1] and in experiment [2] were 0.501 to 2 µM and at least 10 µM, respectively.

With `CC(CC(=O)Nc1sc2c(c1C#N)CCC(COC(=O)N1CCOCC1)C2)c1ccccc1` (stereo not drawn) [Example 378, Morpholine-4-carboxylic acid 3-cyano-2-[3-phenyl-butanoyl-amino]-4,5,6,7-tetrahydro-benzo[b] thiophen-6-ylmethyl ester], the IC50 in experiment [1] is at most 0.501 µM; in experiment [2] it was at least 10 µM.
